pEC50: −log10 of the molar value. Like-named read-outs stand apart in the source and are kept apart here.
Tests used:
Type in all cases: cell-based
mouse PPAR α = target: T1, mouse PPAR α (Mus musculus, UniProt P23204); test: PPAR α transactivation (GAL4 chimeric receptor luciferase reporter) assay
T1 construct: expressed in transfected cells; host or cells: HEK293T
T1 sequence (P23204 239-466 limits assumed): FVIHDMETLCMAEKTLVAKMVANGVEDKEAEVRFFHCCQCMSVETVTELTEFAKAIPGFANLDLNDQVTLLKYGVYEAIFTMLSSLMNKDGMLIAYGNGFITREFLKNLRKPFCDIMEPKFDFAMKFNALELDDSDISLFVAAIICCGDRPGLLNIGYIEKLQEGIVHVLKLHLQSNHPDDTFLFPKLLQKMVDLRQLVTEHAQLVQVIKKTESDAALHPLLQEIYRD
Source text: (§1) Chimeric receptors were constructed in which the yeast transcription factor GAL4 DNA binding domain was fused to the ligand binding domain of either mouse PPARγ, mouse PPAR δ or mouse PPAR α in order to assess the ability of the compounds of the present invention to activate gene expression in a PPAR-dependent manner. The chimeric receptor expression plasmids (GAL4-mPPARγ, GAL4-mPPAR δ and GAL4-PPAR α) and the reporter plasmid containing 5×GAL4 binding site (pFR-Luc, obtained from Stratagene) were transfected into HEK293T cells using the Lipofectamine 2000 reagent (Invitrogen), according to the manufacturers instructions. Six hours after transfection, the culture medium was renewed and the cells were incubated for 20 hours in presence of either 1) DMSO (vehicle), 2) a compound of the invention or 3) a reference compound for comparison. Rosiglitazone (obtained from WDF Pharma) was used as a reference compound for the PPARγ assay; GW501516 (prepared as described in Sznaidman et al. Bioorg. Med. Chem. Lett. (2003) 13:1517-1521) was used as a reference compound for the PPAR δ assay and GW7647 (obtained from Sigma) was used as a reference compound for the PPAR α assay. Luciferase activity was measured as a reporter of gene expression. Luciferase activity on the cell lysates using the Steady-Glo reagent was measured according to the manufacturers instructions.

mouse PPAR δ = target: T2, mouse PPAR δ (Mus musculus, UniProt P35396); test: PPAR δ transactivation (GAL4 chimeric receptor luciferase reporter) assay; conditions: GAL4-mPPAR δ chimeric receptor, pFR-Luc reporter, HEK293T cells, 20 hours incubation
T2 construct: expressed in transfected cells; host or cells: HEK293T
T2 sequence (P35396 210-438 limits assumed): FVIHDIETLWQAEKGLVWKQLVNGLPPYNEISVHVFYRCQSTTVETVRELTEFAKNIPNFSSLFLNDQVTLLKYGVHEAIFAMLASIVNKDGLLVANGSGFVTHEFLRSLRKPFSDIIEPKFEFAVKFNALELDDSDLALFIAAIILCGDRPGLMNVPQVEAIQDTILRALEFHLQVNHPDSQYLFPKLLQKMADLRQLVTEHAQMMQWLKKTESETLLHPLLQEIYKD
Source text: as §1

mouse PPARγ = target: T3, mouse PPARγ (Mus musculus, UniProt P37238); test: PPARγ transactivation (GAL4 chimeric receptor luciferase reporter) assay; conditions: GAL4-mPPARγ chimeric receptor, pFR-Luc reporter, HEK293T cells, 20 hours incubation
T3 construct: expressed in transfected cells; host or cells: HEK293T
T3 sequence (P37238 238-503 limits assumed): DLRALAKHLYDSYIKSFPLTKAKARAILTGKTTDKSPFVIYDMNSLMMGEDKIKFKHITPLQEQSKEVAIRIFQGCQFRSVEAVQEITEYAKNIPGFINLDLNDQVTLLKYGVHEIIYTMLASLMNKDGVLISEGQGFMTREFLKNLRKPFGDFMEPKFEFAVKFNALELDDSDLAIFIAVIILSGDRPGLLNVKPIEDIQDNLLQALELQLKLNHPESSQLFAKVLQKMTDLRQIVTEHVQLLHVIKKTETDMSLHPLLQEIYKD
Source text: as §1

[1] = pFR-Luc reporter, HEK293T cells, 20 hours incubation
[2] = read-out: Gene Activation Assay: EC50 (≦10 μM) PPAR alpha, pFR-Luc reporter, HEK293T cells, 20 hours incubation

pEC50 (mouse PPAR α; [1])	pEC50 (mouse PPAR δ)	pEC50 (mouse PPARγ)	pEC50 (mouse PPAR α; [2])	Structure (SMILES)
≥ 5.00	≥ 5.00	≥ 5.00	–	Cc1cc(SCCCOc2ccc(Br)cc2-c2nc3ccccc3o2)ccc1OCC(=O)O [Compound 300, {4-[3-(2-Benzooxazol-2-yl-4-bromo-phenoxy)-propylsulfanyl]-2-methyl-phenoxy}-acetic acid]
–	≥ 5.00	≥ 5.00	< 5.00	Cc1cc(SCCOc2ccc(Cl)cc2-n2nc3ccccc3n2)ccc1OCC(=O)O [Compound 400, {4-[2-(2-Benzotriazol-2-yl-4-chloro-phenoxy)-ethylsulfanyl]-2-methyl-phenoxy}-acetic acid]
≥ 5.00	≥ 5.00	≥ 5.00	–	O=C(O)Cc1ccc(OCCCOc2ccc(Cl)cc2-n2nc3ccccc3n2)cc1 [Compound 500, {4-[3-(2-Benzotriazol-2-yl-4-chloro-phenoxy)-propoxy]-phenyl}-acetic acid]
≥ 5.00	≥ 5.00	≥ 5.00	–	CCCc1cc(CC(=O)O)ccc1OCCCOc1ccc(Cl)cc1-n1nc2ccccc2n1 [Compound 600, {4-[3-(2-Benzotriazol-2-yl-4-chloro-phenoxy)-propoxy]-3-propyl-phenyl}-acetic acid]
–	≥ 5.00	≥ 5.00	< 5.00	O=C(O)Cc1ccc(OCCOc2ccc(Cl)cc2-n2nc3ccccc3n2)cc1 [Compound 800, {4-[2-(2-Benzotriazol-2-yl-4-chloro-phenoxy)-ethoxy]-phenyl}-acetic acid]
< 4.52	≥ 5.00	≥ 5.00	–	CCCc1cc(CC(=O)O)ccc1OCCOc1ccc(Cl)cc1-n1nc2ccccc2n1 [Compound 900, {4-[2-(2-Benzotriazol-2-yl-4-chloro-phenoxy)-ethoxy]-3-propyl-phenyl}-acetic acid]
≥ 5.00	≥ 5.00	≥ 5.00	–	O=C(O)Cc1ccc(OCCCOc2ccc(Cl)cc2-n2nc3c(n2)CCCC3)cc1 [Compound 1200, (4-{3-[4-Chloro-2-(4,5,6,7-tetrahydro-benzotriazol-2-yl)-phenoxy]-propoxy}-phenyl)-acetic acid]
–	≥ 5.00	≥ 5.00	< 5.00	O=C(O)Cc1ccc(OCCCOc2ccc(Cl)cc2C#Cc2ccccc2)cc1 [Compound 1300, {4-[3-(4-Chloro-2-phenylethynyl-phenoxy)-propoxy]-phenyl}-acetic acid]
–	≥ 5.00	≥ 5.00	< 5.00	COc1cccc(C#Cc2cc(Cl)ccc2OCCCOc2ccc(CC(=O)O)cc2)c1 [Compound 1400, (4-{3-[4-Chloro-2-(3-methoxy-phenylethynyl)-phenoxy]-propoxy}-phenyl)-acetic acid]
–	≥ 5.00	≥ 5.00	< 5.00	O=C(O)Cc1ccc(OCCCOc2ccc(Cl)cc2C#Cc2ccccn2)cc1 [Compound 1500, {4-[3-(4-Chloro-2-pyridin-2-ylethynyl-phenoxy)-propoxy]-phenyl}-acetic acid]
≥ 5.00	≥ 5.00	≥ 5.00	–	Cc1cccc2nn(-c3cc(Cl)ccc3OCCCOc3ccc(CC(=O)O)cc3)nc12 [Compound 1600, (4-{3-[4-Chloro-2-(4-methyl-benzotriazol-2-yl)-phenoxy]-propoxy}-phenyl)-acetic acid]
< 4.52	≥ 5.00	≥ 5.00	–	O=C(O)Cn1ncc2cc(OCCCOc3ccc(Cl)cc3-n3nc4ccccc4n3)ccc21 [Compound 1700, {5-[3-(2-Benzotriazol-2-yl-4-chloro-phenoxy)-propoxy]-indazol-1-yl}-acetic acid]
–	≥ 5.00	≥ 5.00	< 5.00	O=C(O)Cn1ccc2cc(OCCCOc3ccc(Cl)cc3-n3nc4ccccc4n3)ccc21 [Compound 1800, {5-[3-(2-Benzotriazol-2-yl-4-chloro-phenoxy)-propoxy]-indol-1-yl}-acetic acid]
–	≥ 5.00	≥ 5.00	< 5.00	O=C(O)Cn1ccc2cc(OCCOc3ccc(Cl)cc3-n3nc4ccccc4n3)ccc21 [Compound 1900, {5-[2-(2-Benzotriazol-2-yl-4-chloro-phenoxy)-ethoxy]-indol-1-yl}-acetic acid]
